Values joined by “and” are separate entries in the source; they are usually repeats but may differ in a detail not shown here. Equal entries are not always repeated. “Also recorded” adds a separate entry of the source.
Legend:
Type in all cases: cell-based, Chinese Hamster
Cell Line 1 [1] = experiment: Shake flask fedbatch culture of Cell Line 1, cell culture performance (Example 1)
Description: (§1) Two recombinant Chinese Hamster Ovary (CHO) cell lines expressing two different humanized monoclonal antibodies (Antibody 1, Antibody 2) were evaluated in two different culture vessels (shaker flasks and laboratory scale bioreactors). Both cell lines were of CHO DUX-B11 origin based on a dhfr (dihydrofolate reductase) expression system. Both cell lines were cultured in the same chemically defined basal media (CDBM), with Cell Line 1 also utilizing a chemically-defined feed media (CDFM). Each of the respective media were supplemented with selected monosaccharides and oligosaccharides to evaluate their potential impact on the resulting N-glycan oligosaccharide profile. In preparing the cultures, the cell lines were serially expanded through separate seed train inoculums to generate enough cells for inoculation.
(§2) Viable cell density (VCD) and cell viability values were measured through trypan blue exclusion via Cedex automated cell counters (Roche Applied Science, Indianapolis, Ind.), glucose and lactate values were measured with a ABL-805 (Radiometer Medical, Denmark) blood gas analyzer. Offline pH, dissolved oxygen (DO), and pCO2 measurements were performed with a ABL-805 (Radiometer Medical, Denmark) blood gas analyzer. Osmolality was measured on a Multi-Osmette 2430 osmometer (Precision Systems, Natick, Mass.).
(§3) Antibody titers were measured from crude cell culture harvests on a Poros A™ (Life Technologies, Carlsbad, Calif.) affinity column using an Agilent (Santa Clara, Calif.) 1200 Series HPLC, or equivalent, operating with a low pH, step elution gradient with detection at 280 nm. Absolute concentrations were assigned with respect to reference standard calibration curves.
Cell Line 1 was cultured in shake flasks in fedbatch mode after an abbreviated seed train. Sucrose and tagatose were supplemented into chemically-defined basal and feed media at concentrations of 30, 50, and 70 mM, and compared to an unsupplemented control condition. The viable cell density (VCD), viability, and harvest titer results are shown in FIGS. 3A-3C and FIGS. 5A-5C for the sucrose, and tagatose conditions, respectively. Both sugars facilitated a slight decrease in VCD, with the higher concentrations also supporting the lowest peak VCD. […] As such, the upper threshold of sucrose or tagatose concentration should not be exceeded.

Cell Line 1 [2] = experiment: 3 L laboratory-scale bioreactor culture of Cell Line 1, cell culture performance; conditions: for Osmolality / cell viability / lactate / pCO2 / viable cell density: 50 mM supplement vs control; for final harvest titer ratio: relative to unsupplemented control
Description: as §1, §2, §3
(§4) 3 L scale-down model bioreactors were utilized to verify the impact of select sugars on the resulting protein glycosylation profiles. The concentration of the sucrose and tagatose was chosen to minimize any potential adverse impact on cell growth and productivity, but still facilitate a measurable modulation of the glycosylation profile. Cell culture process performance indicators were monitored and measured throughout the respective cultures. Viable cell density, cell viability, lactate, pCO2, osmolality, harvest titer, and harvest N-glycan oligosaccharide data were measured and reported.
(§5) Two recombinant Chinese Hamster Ovary (CHO) cell lines expressing two different recombinant glycoproteins were evaluated in two different cultures vessels (shaker flasks and 3 L laboratory scale bioreactors). Cell Line 1 expressed Antibody 1, Cell Line 2 expressed Dual Variable Domain Immunoglobulin 1 (DVD 1) and Cell Line 3 expressed Antibody 2. Antibodies 1 and 2 are IgG1 proteins, and DVD 1 is an immunoglobulin with two variable domains as documented previously (Wu C. et al., (2007) Nat. Biotechnol 25(11):1290-1297). All cell lines were of CHO DUX-B11 origin based on a dhfr (dihydrofolate reductase) expression system. All cell lines were cultured in the same chemically defined basal media. Cell lines 1 and 2 were fed with the same chemically-defined feed media, but Cell Line 1 was fed media that was formulated at a 50% higher concentration. Each of the respective media were supplemented with either sucrose or tagatose to evaluate their potential impact on the resulting N-glycan oligosaccharide profile. All sugars were purchased from Sigma-Aldrich (St. Louis, Mo.). In preparation of the cultures, the cell lines were serially expanded through separate seed train inoculums to generate enough cells for inoculation.
as §2, with “performed with an ABL-805 (Radiometer” for “performed with a ABL-805 (Radiometer”, “gas analyzer. […]” for “gas analyzer. Osmolality was measured on a Multi-Osmette 2430 osmometer (Precision Systems, Natick, Mass.).”

Cell Line 1 [3] = experiment: N-glycan oligosaccharide profiling, Cell Line 1 in 3 L laboratory-scale bioreactors; conditions: 50 mM supplement vs control
Description: (§6) Purified antibodies subjected to additional analytical characterization were purified using MabSelect™ Protein A (GE Healthcare, Piscataway, N.J.) using a low pH, step elution gradient, followed by buffer exchange using Corning Lifesciences (Tewksbury, Mass.) Spin Concentrator X UF columns according to the manufacturers' recommended procedures.
(§7) Approximately 200 μg of Protein A purified samples from Cell Lines 1 and 2 were treated with N-glycanase at 37° C. overnight to remove the N-glycans from the protein. The protein was precipitated and the supernatant was taken for subsequent chemical derivatization of the reducing end of the released glycans with 2-aminobenzamide (2-AB) dye. Following the derivatization step, the excess label was removed using clean up cartridges and the samples were analyzed using normal phase HPLC with fluorescent detection. Mobile phase A was 100% acetonitrile and mobile phase B was 50 mM ammonium formate pH 4.4. The glycans were eluted from a polyamide column (Prozyme, Hayward, Calif.) using a shallow gradient. The labeled glycans were detected using a fluorescence detector with an excitation wavelength of 330 nm and an emission wavelength of 420 nm.
as §4
3 L scale laboratory bioreactors were utilized to verify the impact of sucrose, tagatose, or fructose on protein glycosylation profiles. Concentrations of the sugars were chosen to minimize any potential adverse impacts on cell growth and productivity, but still facilitate a measurable impact on the glycoform profile. Cell culture process performance indicators were monitored and measured throughout the study. Viable cell density, cell viability, lactate, pCO2, osmolality, harvest titer, and harvest N-glycan oligosaccharide data was measured and reported.

Cell Line 2 = experiment: N-glycan oligosaccharide profiling, Cell Line 2 (DVD 1) shake flasks (Example 2); conditions: 50 mM supplement vs control
Description: as §5, §6, §7
Experimental results are expressed as mean±SD for those results generated from at least three independent cultures. Experimental results are expressed as the measured value for those results generated from less than three independent cultures. Results were evaluated for statistical significance through 2-sided t-tests, with a requirement of p<0.05 relative to the unsupplemented control conditions.
Cell Line 2 was cultured in shake flasks in fed batch mode after an abbreviated seed train. Sucrose and tagatose were supplemented into chemically-defined basal and feed media at concentrations of 1, 30, and 50 mM, and process performance results were compared to unsupplemented control conditions. The viable cell density (VCD), viability, and harvest titer results are shown in FIGS. 15A-15C for the sucrose supplemented cultures and FIGS. 16A-16C for the tagatose supplemented cultures.

Row | SMILES | Harvest titer (adverse impact) (Cell Line 1 [1]; 30 mM supplement vs control) | Harvest titer (adverse impact) (Cell Line 1 [1]; 50 mM supplement vs control) | Harvest titer (adverse impact) (Cell Line 1 [1]; 70 mM supplement vs control) | Osmolality (Cell Line 1 [2]) | cell viability (Cell Line 1 [2]) | lactate (Cell Line 1 [2]) | pCO2 (Cell Line 1 [2]) | viable cell density (Cell Line 1 [2]) | final harvest titer ratio (Cell Line 1 [2]; 50 mM supplement) | Man 5 increase (Cell Line 1 [3]) [%] | Man 6 increase (Cell Line 1 [3]) [%] | Man 7 increase (Cell Line 1 [3]) [%] | decrease in NA1F (Cell Line 1 [3]) [%] | decrease in NGA2F species (Cell Line 1 [3]) [%] | increase in NA1F-GlcNAc (Cell Line 1 [3]) [%] | increase in NGA2F-GlcNAc (Cell Line 1 [3]) [%] | increase in overall mannosylation (Cell Line 1 [3]) [%] | overall decrease in fucosylation (Cell Line 1 [3]) [%] | cumulative increase in overall mannosylated N-glycans (Cell Line 2) [%] | decrease in NA1F species (Cell Line 2) [%] | further results
1 | O=C(CO)[C@@H](O)[C@@H](O)[C@H](O)CO [tagatose] | did not adversely impact harvest titer | did | did | higher; also recorded: only slightly higher | remained high throughout the culture | only a nominal increase | no significant difference | much more pronounced effect | 0.90 | 7 | 2 | 1 | 3 | 15 | 1 | 6 | 10 | 11 | 4 | 1 | peak VCD (Cell Line 1 [2]; 50 mM supplement): 8.5×10^6 cells/mL; decrease in NGA2F species (Cell Line 2): 9%; increase in NGA2F-GlcNAc species (Cell Line 2): 5%; overall decrease in the fucosylation level (Cell Line 2): 5%
2 | OC[C@H]1O[C@@](CO)(O[C@H]2O[C@H](CO)[C@@H](O)[C@H](O)[C@H]2O)[C@@H](O)[C@@H]1O [sucrose] | did not adversely impact titer | did not adversely impact titer | reduce the harvest titer significantly | only slightly higher | no impact | only a nominal increase | no significant difference | no impact | 0.78 | 16 | 5 | 3 | 3 | 29 | 1 | 7 | 24 | 24 | 8 | 1 | cell viability (Cell Line 1 [1]; 70 mM supplement vs control): decrease in cell viability that was larger, and earlier in the culture; decrease in NGA2F species (Cell Line 2): 20%; increase in Man 5 species (Cell Line 2): 7% and 3%; increase in Man 6 species (Cell Line 2): 1%; increase in NGA2F-GlcNAc species (Cell Line 2): 8%; overall decrease in the fucosylation level (Cell Line 2): 13%

— patent publication US9499614B2, “Methods for modulating protein glycosylation profiles of recombinant protein therapeutics using monosaccharides and oligosaccharides” (AbbVie, Inc., priority 2013, dated 2016)
